Reference: patent publication US11241440B2, “Dihydrooxadiazine compounds for treating infections and cancer” (VALORALIA I MÁS D, SL, priority 2016, dated 2022)

What was measured:
[1] = system: FTKGF (deficient in thymidine kinase protein); conditions: compound 2 μM
[2] = system: all tumor cell lines tested; experiment: MTT assay, tumor cell lines of Table VII taken together
CAL33 = experiment: MTT assay; format: cell-based
HSV-1, strain F = conditions: compound 2 μM
PRV-NIA3 = format: cell-based, porcine pseudorabies virus (PRV); conditions: compound 2 μM
M. chelonae = experiment: Kirby-Bauer disk diffusion susceptibility test; format: cell-based; conditions: M. chelonae; 100 μg/disc; zone of inhibition
N. carnea = experiment: Kirby-Bauer disk diffusion susceptibility test; format: cell-based, Nocardia carnea; conditions: N. carnea; 100 μg/disc; zone of inhibition
SK-UT-1 = experiment: MTT assay; format: cell-based; conditions: Homo sapiens, 48 hours
HOS = experiment: MTT assay; format: cell-based; conditions: Homo sapiens, 48 hours
A. baumannii = experiment: Kirby-Bauer disk diffusion susceptibility test; format: cell-based, Acinetobacter baumannii; conditions: A. baumannii; 100 μg/disc; zone of inhibition
S. epidermidis = experiment: Kirby-Bauer disk diffusion susceptibility test; format: cell-based, Staphylococcus epidermidis; conditions: S. epidermidis; 100 μg/disc; zone of inhibition
Aspergillus terreus = experiment: EUCAST broth dilution antifungal susceptibility test (MIC); format: cell-based; conditions: 100% inhibition, 24 hours at 35° C., dilution range 64 to 0.12 mg/l
Description: (§1) Filamentous fungi and yeasts strains, from clinical origin, were supplied by Microbiology Service from The Princess Hospital, Madrid. They are detailed in Table III. Filamentous fungi and yeast cells suspensions in distilled water was prepared from a culture of 24-48 h, depending on species, in Sabouraud agar. Each suspension was adjusted to a fixed size inoculum of 1-5×10^8 CFU/ml with a spectrophotometer (Ferraro, M J National Committee for Clinical Laboratory Standards. 2000). Antifungal susceptibility tests were developed following the standardized methodology detailed by the European Committee on Antimicrobial Susceptibility Testing (EUCAST) documents 7.2 (method for the determination of broth dilution minimum inhibitory concentrations of antifungal agents for yeasts EDef 7.2) and 9.2 (Method for the determination of broth dilution minimum inhibitory concentrations of antifungal agents for conidia forming foulds). The compound was dissolved in DMSO and diluted with RPMI plates with 2% glucose to pH 7 with MOPS buffer. […] Plates were inoculated with a yeast suspension or filamentous fungal spores (1-5×10^5 cls/ml). The results were evaluated after 24 hours incubation at 35° C. and absorbance reading at 530 nm.

Scedosporium prolificans = experiment: as above; format: cell-based; conditions: 100% inhibition, 24 hours at 35° C., dilution range 64 to 0.12 mg/l
Description: as §1

Aspergillus fumigatus = experiment: as above; format: cell-based; conditions: 100% inhibition, 24 hours at 35° C., dilution range 64 to 0.12 mg/l
Description: as §1

Aspergillus flavus = experiment: as above; format: cell-based; conditions: 100% inhibition, 24 hours at 35° C., dilution range 64 to 0.12 mg/l
Description: as §1

M. fortuitum = experiment: Kirby-Bauer disk diffusion susceptibility test; format: cell-based; conditions: M. fortuitum; 100 μg/disc; zone of inhibition
[3] = system: all species tested (pathogenic bacteria); format: cell-based
M. abscessus = experiment: Kirby-Bauer disk diffusion susceptibility test; format: cell-based, Mycobacterium abscessus; conditions: M. abscessus; 100 μg/disc; zone of inhibition

For CCCCCC1=NN(C(=O)CCO)OC(CCCCC)C1 (stereo not drawn) [Compound, 1-(4,6-dipentyl-5,6-dihydro-2H-1,2,3-oxadiazin-2-yl)-3-hydroxypropan-1-one], which “reduction of the titer” value [1] is on record?
Its value is 2.5 logarithms.

And the antitumoral activity ([2]; all tumor cell lines tested)?
The antitumoral activity was “exhibited activity in all tumor cell lines tested”.

What about the “concentration at which inhibition began to be relevant” value ([2]; rest of the cell lines (other than CAL33 and T98G)) of the same compound?
Its value is 100 nM.

And the “concentration at which inhibition is obtained” value (CAL33)?
Its value is 10 nM.

And the “optimal concentration of inhibition” value (CAL33)?
The value was no less than 50 nM.

And the IC50 (CAL33; Homo sapiens, CAL-33, 48 hours)?
The IC50 was 42.8 nM.

What about the “reduction of the titer” value (HSV-1, strain F) of the same compound?
The value was 1.5 logarithms.

What about the “reduction of the titer” value (PRV-NIA3) of the same compound?
The value was 0.5 logarithms.

And the “Activity (mm), 100 μg/disc” value (M. chelonae)?
The value was 63 mm.

And the “Activity (mm), 100 μg/disc” value (N. carnea)?
Its value is 48-50 mm.

And the IC50 (SK-UT-1)?
The IC50 was 199 nM.

What about the IC50 (HOS) of the same compound?
The IC50 was 170 nM.

And the “Activity (mm), 100 μg/disc” value (A. baumannii)?
The value was 10-12 mm.

And the “Activity (mm), 100 μg/disc” value (S. epidermidis)?
Its value is 16-18 mm.

And the “MIC (minimum inhibitory concentration)” value (Aspergillus terreus)?
The value was 0.25.

And the “MIC (minimum inhibitory concentration)” value (Scedosporium prolificans)?
Its value is 0.5.

What about the “MIC (minimum inhibitory concentration)” value (Aspergillus fumigatus) of the same compound?
The value was 0.5.

And the “MIC (minimum inhibitory concentration)” value (Aspergillus flavus)?
Its value is 1.

What about the “Activity (mm), 100 μg/disc” value (M. fortuitum) of the same compound?
Its value is 44 mm.

And the “kind of antibiotic activity” value [3]?
Its value is “bactericidal”.

What about the “Activity (mm), 100 μg/disc” value (M. abscessus) of the same compound?
Its value is 56 mm.
